Measurements: ChEMBL document CHEMBL3639376, “IRE-1Œ± inhibitors” (2015)

Each compound was assayed against Serine/threonine-protein kinase/endoribonuclease IRE1 (Homo sapiens, UniProt O75460) (assay: Inhibition Assay: A fusion protein comprising glutathione S transferase (GST) and human IRE-1alpha (GST-IRE-1alpha) obtained from a 500 ml baculovirus-infected insect cell culture can be used to measure IRE-1alpha activity in vitro. Five ul of a reaction mixture comprising IX reaction buffer (5x reaction buffer is 100 mM Hepes pH 7.5, 250 mM KOAc, 2.5 mM MgCl2), 3 mM DTT, and 0.4% polyethylene glycol water is added to each well of 384 well plates. Twenty-five nanoliters of a 1 mM test compound solution are added to test wells. Three ul of a 128 ng/ml IRE-1alpha preparation are added to each test well and to positive control wells (final concentration 5.82 ng/well). Negative control wells contain only reaction mixture and test compound.After spinning the plates at 1200 rpm for 30 seconds, 3 ul of an IRE-1alpha human mini-XBP-1 mRNA stem-loop substrate 5'-[…]-3' (SEQ ID NO:1), labeled with the fluorescent dye Cy5 at the 5' end and Black Hole Quencher 2.).
Chain of Serine/threonine-protein kinase/endoribonuclease IRE1 (O75460 whole entry, the tested form may be a part): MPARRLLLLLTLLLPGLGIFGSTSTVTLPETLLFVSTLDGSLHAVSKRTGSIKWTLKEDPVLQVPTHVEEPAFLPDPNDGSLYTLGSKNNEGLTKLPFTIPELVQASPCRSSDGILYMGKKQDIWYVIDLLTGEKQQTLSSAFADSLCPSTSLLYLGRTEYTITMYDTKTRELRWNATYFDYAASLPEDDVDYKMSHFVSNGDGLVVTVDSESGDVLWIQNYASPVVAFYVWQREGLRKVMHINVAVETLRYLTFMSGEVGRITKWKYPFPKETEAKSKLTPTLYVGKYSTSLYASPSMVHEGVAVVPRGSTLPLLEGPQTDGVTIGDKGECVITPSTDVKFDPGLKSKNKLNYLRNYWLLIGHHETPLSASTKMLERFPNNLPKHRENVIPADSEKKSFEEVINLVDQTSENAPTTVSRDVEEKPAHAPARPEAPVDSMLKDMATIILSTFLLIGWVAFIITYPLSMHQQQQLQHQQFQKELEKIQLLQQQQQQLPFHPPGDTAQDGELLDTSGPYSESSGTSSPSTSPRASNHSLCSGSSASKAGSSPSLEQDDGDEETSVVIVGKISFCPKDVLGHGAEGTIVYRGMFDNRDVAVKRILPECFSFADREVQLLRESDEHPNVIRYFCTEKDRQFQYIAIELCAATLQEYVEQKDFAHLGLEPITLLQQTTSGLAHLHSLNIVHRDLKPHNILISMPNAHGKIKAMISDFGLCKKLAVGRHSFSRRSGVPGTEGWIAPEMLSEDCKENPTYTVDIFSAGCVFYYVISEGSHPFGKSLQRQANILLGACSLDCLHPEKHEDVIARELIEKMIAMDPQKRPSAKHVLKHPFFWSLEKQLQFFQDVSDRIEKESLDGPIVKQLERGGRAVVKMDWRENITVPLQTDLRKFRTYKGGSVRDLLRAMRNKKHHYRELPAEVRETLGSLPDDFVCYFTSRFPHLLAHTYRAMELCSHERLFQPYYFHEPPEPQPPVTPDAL
An IC50 of under 100 nM was found for `Cc1c(Br)c(=O)oc2c(C=O)c(O)ccc12` in this work. An IC50 of under 100 nM was found for `O=Cc1c(O)ccc2cc(-c3ccc(Br)cc3)c(=O)oc12` in this work. An IC50 of under 100 nM was found for `Cc1c(-c2ccc(C(=O)N3CCN(C)CC3)cc2)c(=O)oc2c(C=O)c(O)ccc12` in this work. An IC50 of under 100 nM was found for `CCN(CC)CCc1c(C)c2ccc(O)c(C=O)c2oc1=O` in this work. An IC50 of under 100 nM was found for `COc1cc2c(C)c(Br)c(=O)oc2c(C=O)c1O` in this work. An IC50 of under 1000 nM was found for `Cc1c(Br)c(=O)oc2c(C=O)c(O)c(F)cc12` in this work. An IC50 of under 100 nM was found for `Cc1c(-c2cccc(C(=O)N3CCOCC3)c2)c(=O)oc2c(C=O)c(O)ccc12` in this work. An IC50 of under 100 nM was found for `Cc1c(Cc2ccccc2)c(=O)oc2c(C=O)c(O)c(O)cc12` in this work. An IC50 of under 1000 nM was found for `Cc1c(-c2ccc(C(=O)N3CCCC3)cc2)c(=O)oc2c(C=O)c(O)ccc12` in this work. An IC50 of under 1000 nM was found for `Cc1c(-c2ccc(C(=O)N3CCC(C)CC3)cc2)c(=O)oc2c(C=O)c(O)ccc12` in this work. An IC50 of under 100 nM was found for `Cc1c(-c2cccc(C(=O)N3CCCC3)c2)c(=O)oc2c(C=O)c(O)ccc12` in this work. An IC50 of under 1000 nM was found for `Cc1cc(=O)oc2c(C=O)c(O)c(F)cc12` in this work. An IC50 of under 1000 nM was found for `COc1cc2c(C)c(-c3ccc(C(=O)N4CCOCC4)cc3)c(=O)oc2c(C=O)c1O` in this work. An IC50 of over 10000 nM was found for `CN1CCN(CCC(=O)N2CCc3c(ccc(O)c3C=O)C2)CC1` in this work. An IC50 of under 10000 nM was found for `Cc1nc(N2CCc3c(ccc(O)c3C=O)C2)sc1C(=O)N1CCOCC1` in this work. An IC50 of under 1000 nM was found for `O=Cc1c(O)ccc2nc(-c3cccc(C(=O)N4CCOCC4)c3)ccc12` in this work. An IC50 of under 100 nM was found for `CC1CCN(C(=O)c2ccc(-c3ccc4c(C=O)c(O)ccc4n3)cc2)CC1` in this work. An IC50 of under 100 nM was found for `O=Cc1c(O)ccc2nc(-c3ccc(C(=O)N4CCCC4)cc3)ccc12` in this work. An IC50 of under 100 nM was found for `O=Cc1c(O)ccc2nc(N3CCC(NC(=O)CN4CCOCC4)C3)ccc12` (stereo not given) in this work. An IC50 of under 100 nM was found for `CC(=O)NC1CCN(c2ccc3c(C=O)c(O)ccc3n2)C1` (stereo not given) in this work. An IC50 of under 100 nM was found for `CN1CCN(C2CCN(c3nc4ccc(O)c(C=O)c4s3)C2)CC1` (stereo not given) in this work. An IC50 of under 100 nM was found for `CC(C)N1CCN(c2nc3ccc(O)c(C=O)c3s2)CC1` in this work. An IC50 of under 100 nM was found for `CN1CCN(C(=O)c2ccc(-c3nc4ccc(O)c(C=O)c4s3)s2)CC1` in this work. An IC50 of under 100 nM was found for `CC1CCN(C(=O)c2ccc(-c3nc4ccc(O)c(C=O)c4s3)cc2)CC1` in this work. An IC50 of under 1000 nM was found for `O=Cc1c(O)ccc2nc(-c3ccc(C(=O)O)cc3)[nH]c12` in this work. An IC50 of under 1000 nM was found for `COC(=O)c1ccc(-c2nc3ccc(O)c(C=O)c3[nH]2)cc1` in this work. An IC50 of under 100 nM was found for `O=Cc1c(O)ccc2nc(-c3ccc(C(=O)NCCN4CCOCC4)cc3)[nH]c12` in this work. An IC50 of under 100 nM was found for `O=Cc1c(O)ccc2nc(-c3ccc(C(=O)N4CCOCC4)cc3)[nH]c12` in this work. An IC50 of under 100 nM was found for `CN1CCN(C(=O)c2ccc(-c3nc4ccc(O)c(C=O)c4[nH]3)cc2)CC1` in this work. An IC50 of under 100 nM was found for `Cc1c(CCC(=O)N2CCOCC2)c(=O)oc2c(C=O)c(O)ccc12` in this work.
